Assay results taken from patent US9433605B2, “Method for promoting synthesis of tissue collagen” (Kyowa Hakko Bio Co., Ltd., priority 2006, dated 2016).

How the values were obtained:
[1] = Concentration of free hydroxyproline in serum and skin after oral intake; format: in vivo; conditions: HOS:HR-1 mouse, 500 mg/kg oral, 0.5-24 hours, FIGS. 1 and 2
Procedure: HOS:HR-1 mouse (seven-week-old female; purchased from Japan SLC, Inc.) was used in the test.
Trans-4-hydroxy-L-proline (Kyowa Hakko Kogyo Co., Ltd.; hereinafter referred to as hydroxyproline) was dissolved in purified water at a concentration of 50 mg/ml, and the resulting solution was orally administered in an amount of 500 mg/kg. After 0.5, 1, 2, 4, 6 and 24 hours, blood was collected from the abdominal vena cava of the mouse under diethyl ether inhalation anesthesia to obtain a serum. After cervical dislocation, dorsal skin was collected, subjected to freeze-disruption and then to extraction with water to obtain a skin extract.
The amount of hydroxyproline in the sera and the skin extract was analyzed by high performance liquid chromatography using ODS column ([…]×15 cm, GL Sciences Inc.) after protein was removed with an equal amount of 2% (w/v) sulfosalicylic acid and the second amino group was labeled with NBD-Cl (4-chloro-7-nitro-2,1,3-benzoxadiazole, Tokyo Chemical Industry Co., Ltd.).

[2] = system: synthesis of collagen in the skin; test: Subcutaneous sponge implant: amount of hydroxyproline as index of collagen-synthesizing and tissue-restoring ability; format: in vivo; conditions: rats, sponge pieces, Student's t-test p < 0.05
Procedure: F344/DuCrlCrlj rats (12 heads, 29-week-old male; purchased from Charles River Laboratories Japan, Inc.) were divided into 2 groups each consisting of 6 rats.
The rats of Group 1 and Group 2 were fed with the feed of Example 5 and the control feed of Comparative Example 1, respectively, ad libitum for 7 days. The abdominal area of each rat was shaved with clippers under anesthesia by intraperitoneal administration of pentobarbital, and cut sponge pieces (ca. 150 mg, 2 mm thick, ca. 38 mm×12 mm; Ivalon, Inc.) were inserted into two spots under the skin, followed by suturing. After further feeding for 7 days, the sponge pieces were taken out.
The sponge pieces were subjected to reaction using 6N hydrochloric acid (20 ml/piece) at 110° C. for 18 hours to decompose them with acid and heat. The products obtained by decomposition with acid and heat were diluted 10 times with 1M borate buffer (pH 10.6), and the amount of hydroxyproline was measured in the same manner as in Test Example 1 and was regarded as an index of the collagen-synthesizing ability and tissue-restoring ability of a rat.
The values were shown in terms of average value ±standard deviation and a test of statistical significance was performed by Student's t-test.

[3] = system: skin wrinkles or sagging; test: Parallel-group double-blind test, 10-level self-rating of facial skin condition; format: in vivo, human; conditions: oral ingestion, 4 weeks, conclusion from Table 2
Procedure: Females aged 47 to 65 years (21 subjects) who chronically suffer from dry skin and rough skin were divided into two groups. After a 2-week observation period, Group 1 (9 subjects) and Group 2 (12 subjects) ingested hard capsules of Example 6 and hard capsules of Comparative Example 2, respectively, for 4 weeks (2 capsules each morning and evening). The test was carried out by parallel-group double-blind test. At the start and the end of the period of ingesting hard capsules, the following questions 1 to 3 were addressed to the subjects (answer “1”: level 1, answer “10”: level 10) and the skin conditions of the subjects were evaluated by a 10-level rating system. • Question 1: Evaluate the level of wrinkles on your face.
1: Wrinkles all over the surface
10: No wrinkles • Question 2: Evaluate the elasticity of the skin of your face.
10: Extreme elasticity • Question 3: Evaluate the firmness of the skin of your face.
The improvement rate (%) was calculated according to Equation 1. Improvement rate (%)=average value of levels after intake/average value of levels before intake×100 [Equation 1]

## O=C(O)[C@@H]1C[C@@H](O)CN1 [hydroxyproline, Trans-4-hydroxy-L-proline]
[1]
  movement of orally ingested hydroxyproline into blood and skin (free hydroxyproline in serum and skin extract): quickly moves into blood and skin
[2]
  amount of hydroxyproline derived from heat-decomposed collagen (versus control feed): significantly increased
[3]
  wrinkles and sagging of the face: improved
